{"source": "patent US5428182A", "about": "“Bile acid derivatives, process for their preparation and use of these compounds as pharmaceuticals” (Hoechst Aktiengesellschaft, priority 1992, dated 1995)", "molecular_target": "T1, Na^+ -dependent bile acid transport system (Oryctolagus cuniculus, UniProt Q28727)", "T1 construct": "Brush border membrane vesicles from the intestinal cells of the small intestine were prepared by the so-called Mg^2+ precipitation method; from tissue; host or cells: terminal ileum (terminal 7/10 of small intestine) of male New Zealand rabbits, brush border membrane vesicles", "T1 sequence (Q28727 1-347)": "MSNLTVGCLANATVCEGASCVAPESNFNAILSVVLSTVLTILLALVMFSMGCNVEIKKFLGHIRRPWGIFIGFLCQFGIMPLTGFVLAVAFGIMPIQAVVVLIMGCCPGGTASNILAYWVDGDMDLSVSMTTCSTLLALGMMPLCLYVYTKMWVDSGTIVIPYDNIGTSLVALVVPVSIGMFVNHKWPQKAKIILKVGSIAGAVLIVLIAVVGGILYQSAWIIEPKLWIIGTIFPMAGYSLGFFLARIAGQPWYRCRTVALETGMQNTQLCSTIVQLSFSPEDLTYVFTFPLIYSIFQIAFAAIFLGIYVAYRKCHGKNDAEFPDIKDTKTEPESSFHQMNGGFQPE", "experiment": "inhibition of Na+-dependent [3H]-taurocholate absorption in brush border membrane vesicles of rabbit ileum (membrane filtration technique)", "format": "biochemical", "details": "50 μM taurocholate, customarily 1 minute, pH 7.4", "experimental": "The biological testing of the compounds according to the invention was carried out by determining the inhibition of [^3 H]-taurocholate absorption in brush border membrane vesicles of the rabbit ileum. The inhibition test was carried out as follows:\nBrush border membrane vesicles from the intestinal cells of the small intestine were prepared by the so-called Mg^2+ precipitation method. Male New Zealand rabbits (2 to 2.5 kg body weight) were sacrificed by intravenous injection of 0.5 ml of an aqueous solution of 2.5 mg of tetracaine HCl, 100 T 61® and 25 mg of mebezonium iodide. The small intestine was removed and rinsed with ice-cold physiological saline solution. The terminal 7/10 of the small intestine (measured in the oral-rectal direction, i.e. the terminal ileum, which contains the active Na^+ -dependent bile acid transport system) were used for the preparation of the brush border membrane vesicles. The intestines were frozen under nitrogen at -80° C. in plastic bags. For the preparation of the membrane vesicles, the frozen intestines were thawed at 30° C. in a water bath. The mucosa was scraped off and suspended in 60 ml of ice-cold 12 mM tris/HCl buffer (pH 7.1)/300 mM mannitol, 5 mM EGTA/ 10 mg/l of phenylmethylsulfonyl fluoride/l mg/l of trypsin inhibitor from soybeans (32 U/mg)/0.5 mg/l of trypsin inhibitor from bovine lung (193 U/mg)/5 mg/l of bacitracin. After dilution to 300 ml with ice-cold distilled water, the suspension was homogenized using an Ultraturrax (18-rod, IKAWerk Staufen, FRG) for 3 minutes at 75% maximum power with ice-cooling. After addition of 3 ml of 1M MgCl2 solution (final concentration 10 mM), the homogenate was allowed to stand at 0° C. for exactly 1 minute. As a result of addition of Mg^2+, the cell membranes aggregate and precipitate with the exception of the brush border membranes. After centrifugation at 3000×g for 15 minutes (5000 rpm, SS-34 rotor), the precipitate is discarded and the supernatant which contains the brush border membranes is centrifuged at […] for 30 minutes (15,000 rpm, SS-34 rotor). The supernatant was discarded and the precipitate was rehomogenized in 60 ml of 12 mM tris/HCl buffer (pH 7.1)/60 mM mannitol/5 mM EGTA using a Potter Elvejhem homogenizer (Braun Melsungen, 900 rpm, 10 strokes). After addition of 0.1 ml of 1M MgCl2 solution and an incubation time of 15 minutes at 0° C., centrifugation was once more carried out at 3000×g for 15 minutes. The supernatant was then centrifuged again at 46,000×g (15,000 rpm, SS-34 rotor) for 30 minutes. The precipitate was taken up in 30 ml of 10 mM tris/hepes buffer (pH 7.4)/300 mM mannitol and homogeneously resuspended at 1000 rpm by 20 strokes in a Potter Elvejhem homogenizer. After centrifugation at 48,000×g (20,000 rpm, SS-34 rotor) for 30 minutes, the precipitate was taken up in 0.5 to 2 ml of tris/HEPES buffer (pH 7.4)/280mM mannitol (final concentration 20 mg/ml) and resuspended with the aid of a tuberculin syringe having a 27 gauge needle. The vesicles were either used immediately after preparation for transport investigations or stored in liquid nitrogen at -196° C. in 4 mg portions.\nThe absorption of substrates in the brush border membrane vesicles described above was determined by means of the so-called membrane filtration technique. 10 μl of the vesicle suspension (100 μg of protein) were pipetted as drops onto the wall of a polystyrene incubation tube (11×70 mm) which contained the incubation medium with the appropriate ligands (90 μl). The incubation medium contained 0.75 μl=0.75 μCi of [^3 H(G)]-taurocholate (specific activity: 2.1 Ci/mMol)/0.5 μl of 10 mM taurocholate/8.75 μl of sodium transport buffer (10 mM tris/HEPES (pH 7.4)/100 mM mannitol/100 mM NaCl) (Na-T-B) or 8.75 μl of potassium transport buffer (10 mM tris/hepes (pH 7.4)/100 mM mannitol/100 mM KCl) (K-T-B) and 80 μl of the inhibitor solution concerned, depending on the experiment, dissolved in Na-T buffer or K-T buffer. […]", "data": [{"compound": "CC(CCC(=O)O)C1CCC2C3C(O)CC4CC(OCCNC(=O)C5C(C(=O)NCCOC6CCC7(C)C(C6)CC(O)C6C7CC(O)C7(C)C(C(C)CCC(=O)O)CCC67)C(C(=O)NCCOC6CCC7(C)C(C6)CC(O)C6C7CC(O)C7(C)C(C(C)CCC(=O)O)CCC67)C5C(=O)NCCOC5CCC6(C)C(C5)CC(O)C5C6CC(O)C6(C)C(C(C)CCC(=O)O)CCC56)CCC4(C)C3CC(O)C12C", "note": "(centres unmarked) [Example 47]", "values": [{"measurement": "IC50Na (TCDC) / IC50Na (Substance)", "setting": "quotient of IC50Na of the standard TCDC and of the substance, Na+-dependent transport (difference Na-T-B minus K-T-B)", "value": 0.23}, {"measurement": "IC50 (TCDC) / IC50 (Substance)", "setting": "quotient of IC50 of the standard taurochenodeoxycholate (TCDC) and of the substance", "value": 0.24}]}]}
